Measurements reported in PMC3425516 (PLoS ONE, 2012).

Tests used:
NCI-H460 = assay: NCI-60 cell lines screening; type: cell-based; conditions: Homo sapiens, NCI-H460, Non-Small Cell Lung Cancer panel
Protocol: (§1) The NCI-60 cancer cell lines screening was conducted by the NCI’s Developmental Therapeutics Program (DTP; http://www.dtp.nci.nih.gov/branches/btb/ivclsp.html).

HL-60 (TB) = assay: NCI-60 cell lines screening; type: cell-based; conditions: Leukemia panel
Protocol: as §1

HCT116 xenograft tumors = assay: Western blot of HCT116 xenograft tumor tissues; type: in vivo, nude mice; conditions: 200 mg/kg oral daily for 7 days
Protocol: For total lysate, cells were lysed with the 120 µL ice-cold lysis buffer [10 mmol/L Tris-HCl (pH 7.4), 150 mmol/L NaCl, 1 mmol/L EGTA, 1 mmol/L phenylmethylsulfonyl fluoride, 10 µg/mL aprotinin, 10 µg/mL leupeptin, 1 mM sodium orthovandate, 1 mM NaF, and 1% Triton X-100]. Cell lysates were centrifuged at 13,000 rpm for 30 min. […] After 1 h incubation at room temperature in PBS/5% nonfat milk, the membrane was washed with PBS/0.1% and incubated with the indicated antibodies at 4°C overnight. After washings with PBS/0.1% Tween 20, the corresponding secondary antibodies were applied to the membranes for 1 h at room temperature. The membranes were then washed with PBS/0.1% Tween 20 and the detection of signal was done with an enhanced chemiluminescence detection kit (Amersham, Buckinghamshire, UK).
Once a tumor was palpable with the size of approximately 55 mm^3, mice were randomized into vehicle control and treatment groups (8 mice per group). Control mice received the vehicle (0.5% carboxymethyl cellulose +0.1% Tween 80). Tumors in all 3 groups were allowed to reach an endpoint volume of 1,200 mm^3.

HCT116 cells = assay: Flow cytometry cell cycle / sub-G1 analysis; type: cell-based, human
Protocol: After centrifugation, cells were incubated in 0.1 mol/L phosphate-citric acid buffer [0.2 mol/L NaHPO4, 0.1 mol/L citric acid (pH 7.8)] for 20 min at room temperature. Then, the cells were centrifuged and resuspended with 0.5 mL PI solution containing Triton X-100 (0.1%, v/v), RNase (100 µg/mL), and PI (80 µg/mL). DNA content was analyzed with the FACScan and CellQuest software (Becton Dickinson).

recombinant human HDAC6 = recombinant human HDAC6 (Homo sapiens, UniProt Q9UBN7); assay: biochemical
Text: The HDACs in vitro activities of recombinant human HDAC 1, 2, 4, 6 and 8 (BPS Biosciences) were detected by fluorigenic release of 7-amino-4-methylcoumarin from substrate upon deacetylase enzymatic activity.

HS 578T = assay: NCI-60 cell lines screening; type: cell-based, human
Protocol: as §1

SF-295 = assay: NCI-60 cell lines screening; type: cell-based, human; conditions: SF-295, CNS Cancer panel
Protocol: as §1

NCI-H322M = assay: NCI-60 cell lines screening; type: cell-based, human; conditions: Non-Small Cell Lung Cancer panel
Protocol: as §1

A549/ATCC = assay: NCI-60 cell lines screening; type: cell-based, human; conditions: Non-Small Cell Lung Cancer panel
Protocol: as §1

HOP-92 = assay: NCI-60 cell lines screening; type: cell-based, human; conditions: HOP-92, Non-Small Cell Lung Cancer panel
Protocol: as §1

MCF-7 = assay: NCI-60 cell lines screening; type: cell-based, human; conditions: MCF-7, Breast Cancer panel
Protocol: as §1

UACC-257 = assay: NCI-60 cell lines screening; type: cell-based, human; conditions: UACC-257, Melanoma panel
Protocol: as §1

SNB-19 = assay: NCI-60 cell lines screening; type: cell-based, human; conditions: SNB-19, CNS Cancer panel
Protocol: as §1

TK-10 = assay: NCI-60 cell lines screening; type: cell-based, human; conditions: TK-10, Renal Cancer panel
Protocol: as §1

OVCAR-8 = assay: NCI-60 cell lines screening; type: cell-based, human; conditions: OVCAR-8, Ovarian Cancer panel
Protocol: as §1

NCI/ADR-RES = assay: NCI-60 cell lines screening; type: cell-based, human; conditions: Ovarian Cancer panel
Protocol: as §1

MDA-MB-435 = assay: NCI-60 cell lines screening; type: cell-based, human; conditions: MDA-MB-435, Melanoma panel
Protocol: as §1

PC-3 = assay: NCI-60 cell lines screening; type: cell-based, human; conditions: PC-3, Prostate Cancer panel
Protocol: as §1

MALME-3M = assay: NCI-60 cell lines screening; type: cell-based, human; conditions: Melanoma panel
Protocol: as §1

A498 = assay: NCI-60 cell lines screening; type: cell-based, human; conditions: A498, Renal Cancer panel
Protocol: as §1

CAKI-1 = assay: NCI-60 cell lines screening; type: cell-based, human; conditions: CAKI-1, Renal Cancer panel
Protocol: as §1

UO-31 = assay: NCI-60 cell lines screening; type: cell-based, human; conditions: UO-31, Renal Cancer panel
Protocol: as §1

HUVEC = assay: Crystal violet cell growth assay; type: cell-based, human
Protocol: The HUVECs were seeded into 96-well culture plates (5000 cells/well) in quadruplicate. After 24 h incubation, cells were fixed with 0.1% crystal violet/20% methanol, representing cell population at the time of drug treatment (T 0). […] After 48 h incubation at 37°C, cells were stained with 0.1% crystal violet/20% methanol for 10 minutes and washed for 3 times.

[1] = Homo sapiens, read-out: LC50 (the source's name)

Chain of recombinant human HDAC6 (Q9UBN7 whole entry): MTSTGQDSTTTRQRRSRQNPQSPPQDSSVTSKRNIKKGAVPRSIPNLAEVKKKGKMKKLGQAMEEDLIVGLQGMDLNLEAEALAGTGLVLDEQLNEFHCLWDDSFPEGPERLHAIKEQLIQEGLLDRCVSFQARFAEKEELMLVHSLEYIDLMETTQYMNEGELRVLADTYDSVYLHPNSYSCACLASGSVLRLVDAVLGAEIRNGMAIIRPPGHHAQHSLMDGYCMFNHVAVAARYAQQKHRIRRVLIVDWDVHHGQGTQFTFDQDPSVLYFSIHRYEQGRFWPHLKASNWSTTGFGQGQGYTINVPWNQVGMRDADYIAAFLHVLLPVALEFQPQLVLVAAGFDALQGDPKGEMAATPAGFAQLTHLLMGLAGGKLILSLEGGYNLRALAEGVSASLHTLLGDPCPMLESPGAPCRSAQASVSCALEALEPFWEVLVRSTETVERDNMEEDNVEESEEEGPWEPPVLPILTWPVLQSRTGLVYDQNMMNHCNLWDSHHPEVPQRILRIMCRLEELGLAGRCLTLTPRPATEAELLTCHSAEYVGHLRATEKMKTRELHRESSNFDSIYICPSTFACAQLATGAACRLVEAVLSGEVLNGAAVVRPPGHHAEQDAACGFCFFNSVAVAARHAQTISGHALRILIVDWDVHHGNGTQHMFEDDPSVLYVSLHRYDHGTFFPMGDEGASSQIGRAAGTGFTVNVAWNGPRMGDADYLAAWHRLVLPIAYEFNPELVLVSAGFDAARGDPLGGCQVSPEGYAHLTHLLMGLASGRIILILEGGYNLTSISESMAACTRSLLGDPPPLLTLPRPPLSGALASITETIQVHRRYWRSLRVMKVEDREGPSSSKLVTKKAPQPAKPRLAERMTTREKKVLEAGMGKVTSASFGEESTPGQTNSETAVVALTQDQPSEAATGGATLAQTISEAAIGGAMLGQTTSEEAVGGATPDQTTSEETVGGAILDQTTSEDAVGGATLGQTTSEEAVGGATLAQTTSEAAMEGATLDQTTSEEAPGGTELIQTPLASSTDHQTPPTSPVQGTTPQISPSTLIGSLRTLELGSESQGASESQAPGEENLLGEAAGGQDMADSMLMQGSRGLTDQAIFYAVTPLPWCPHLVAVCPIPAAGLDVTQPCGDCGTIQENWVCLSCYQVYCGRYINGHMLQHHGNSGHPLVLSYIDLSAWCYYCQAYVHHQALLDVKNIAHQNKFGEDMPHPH

O=C(C=Cc1ccc2c(c1)CCN2S(=O)(=O)c1ccccc1)NO [MPT0E028, 3-(1-benzenesulfonyl-2,3-dihydro-1H-indol-5-yl)-N-hydroxy-acrylamide]
GI50 (NCI-H460): 144 nM | CC50 (NCI-H460; read-out: LC50 (the source's name)): 21600 nM | GI50 (HL-60 (TB); Homo sapiens): 439 nM | CC50 (HL-60 (TB); [1]): > 100000 nM | TGI (HL-60 (TB)): >100000 nM | expression of caspase 3, PARP, acetyl-histone H3 and acetyl-tubulin in xenograft tumors (HCT116 xenograft tumors): caspase 3, PARP and acetyl-histone H3 were substantially induced | sub-G1 population (flow cytometry) (HCT116 cells): increased the number of cells in the sub-G1 phase of the cell cycle | IC50 (recombinant human HDAC6): 29.5 ± 6.4 nM | TGI (HS 578T; HS 578T, Breast Cancer panel): 17900 nM | GI50 (HS 578T; Homo sapiens, Hs-578T): 253 nM | CC50 (HS 578T; Homo sapiens, Hs-578T, read-out: LC50 (the source's name)): > 100000 nM | GI50 (SF-295; Homo sapiens): 60.3 nM | CC50 (SF-295; [1]): 2430 nM | TGI (SF-295): 340 nM | GI50 (NCI-H322M; Homo sapiens): 186 nM | CC50 (NCI-H322M; [1]): > 100000 nM | TGI (NCI-H322M): 11400 nM | GI50 (A549/ATCC; Homo sapiens): 230 nM | CC50 (A549/ATCC; [1]): 9030 nM | TGI (A549/ATCC): 1090 nM | TGI (HOP-92): 814 nM | GI50 (HOP-92; Homo sapiens): 210 nM | CC50 (HOP-92; [1]): 18000 nM | GI50 (MCF-7; Homo sapiens, MCF7): 230 nM | CC50 (MCF-7; Homo sapiens, MCF7, read-out: LC50 (the source's name)): 62700 nM | TGI (MCF-7): 10500 nM | GI50 (UACC-257; Homo sapiens): 127 nM | CC50 (UACC-257; [1]): > 100000 nM | TGI (UACC-257): 1650 nM | GI50 (SNB-19; Homo sapiens): 434 nM | CC50 (SNB-19; [1]): 5650 nM | TGI (SNB-19): 1640 nM | GI50 (TK-10; Homo sapiens): 103 nM | CC50 (TK-10; [1]): 33600 nM | TGI (TK-10): 660 nM | GI50 (OVCAR-8; Homo sapiens): 121 nM | CC50 (OVCAR-8; [1]): > 100000 nM | TGI (OVCAR-8): 1750 nM | GI50 (NCI/ADR-RES; Homo sapiens): 38.5 nM | CC50 (NCI/ADR-RES; [1]): > 100000 nM | TGI (NCI/ADR-RES): 239 nM | GI50 (MDA-MB-435; Homo sapiens): 146 nM | CC50 (MDA-MB-435; [1]): 11300 nM | TGI (MDA-MB-435): 706 nM | GI50 (PC-3; Homo sapiens): 240 nM | CC50 (PC-3; [1]): > 100000 nM | TGI (PC-3): 21000 nM | GI50 (MALME-3M; Homo sapiens): 37.5 nM | CC50 (MALME-3M; [1]): > 100000 nM | TGI (MALME-3M): 907 nM | TGI (A498): 1130 nM | GI50 (A498; Homo sapiens): 243 nM | CC50 (A498; [1]): 5130 nM | TGI (CAKI-1): 959 nM | GI50 (CAKI-1; Homo sapiens): 218 nM | CC50 (CAKI-1; [1]): > 100000 nM | GI50 (UO-31; Homo sapiens): 169 nM | CC50 (UO-31; [1]): 5630 nM | TGI (UO-31): 1460 nM | GI50 (HUVEC; HUVEC (human normal cells), crystal violet assay, 48 h): 3570 ± 450 nM | folds less sensitive against normal cells (safety margin) (HUVEC; HUVEC versus cancer cells): 20–40 folds
